The values below come from patent US9394544B2, “Ameliorating oxidative stress in neurodegenerative disease via Nox1 targeting” (University of Central Florida Research Foundation, Inc., priority 2013, dated 2016).

SMILES strings stand for the structures.

Data set [1] has as its system SN DA neurons. Description: Stereologic counting of TH-immunostained DA neurons in the SN, 6-OHDA rat model. The class given is in vivo. The settings on record: direct injection into the rat SN, in 2 weeks. The procedure: The experiments were carried out on rats, in accordance with the NIH Guide for the Care and Use of Laboratory Animals. All procedures were approved by the local Animal Care and Use Committee. Female Sprague Dawley (SD) rats (Charles River; 8-weeks-old at the time of the beginning of AAV expression or 6-OHDA treatment, 2 or 3 per cage) were maintained in a temperature/humidity-controlled environment under a 12 h light/dark cycle with free access to food and water. All rats were respectively allocated into […], Nox1 shRNA/AAV, T17N Rac1/AAV, and scramble (scb) shRNA/AAV or empty vector/AAV as control groups. Rats were deeply anesthetized (ketamine and xylazine mixture 30 mg/kg, i.p.) and placed in a rat stereotaxic apparatus, a site in the right substantia nigra (SN) [coordinate: anteroposterior (AP), −5.3 mm; mediolateral (ML), +2.0 mm; dorsoventral (DV), −5.8 mm] was selected to inject scb shRNA/AAV (n=8), Nox1 shRNA/AAV (n=16), T17N Rac1/AAV (n=16), and empty vector/AAV (n=28), respectively, according to the grouping. […]
A set consisting of six sections, 360 μm apart, were prepared. […] Numbers of TH-immunoreactive cells in the substantia nigra (SN) were counted using the optical fractionator (West 1990). […] The coefficient of error and coefficient of variation were also determined.

In data set [2] the test system is Rac1. Description: Rac1 activation assay (active GTPase pull-down) in N27 cells. The class given is cell-based, rat. The settings on record: 6 h post administration. From the text: The NADPH oxidase is a multi-subunit enzyme that consists of the catalytic subunits (Nox isoforms) together with the regulatory subunits including p22phox, p47phox, p40phox, p67phox, Nox organizer 1 (Noxo1), Nox activator 1 (Noxa1), and small GTPase Rac1. In order to test whether dopaminergic (DA) cells are equipped with the NOX components, N27, a well-established rat DA cell line was examined (Prasad et al. 1994). The mRNAs encoding each Nox isoform and regulatory subunits were detected using RT-PCR. Since transcriptional induction of Nox1 and Nox4 has already been reported in several tissues under a variety of stimuli, transcripts were determined in both nontreated and 6-hydroxydopamine (6-OHDA), a DA neurodegenerative compound, treated DA cells. ROS generation as induced by 6-OHDA (100 μM) and subsequent cell death was observed. All Nox isoforms (Nox1, Nox2, Nox4, Duox1 and Duox2) except Nox3 and Nox5 were detected (FIG. 1A). […] Mitochondria, which have long been considered as a major source of ROS, play a key role in Nox1-mediated superoxide generation (Desouki et al. 2005). […] Cytoplasmic regulatory subunits including p47phox, Noxa1, and Noxo1 were constitutively expressed in DA cells as well (FIG. 1A). Noxa1 and Noxo1 are homologues of p67phox and p47phox, respectively. […] GTP-bound active Rac1 was measured in DA cells treated with 6-OHDA for various duration from 1 h to 6 h. […]

For the compound `NCCc1cc(O)c(O)cc1O` [6-OHDA, 6-hydroxydopamine], the “loss of TH-positive SNDA neurons” value in data set [1] is 90%-95%. In data set [2], the “GTP-bound active Rac1” value is “Rac1 activation was observed”.
